Laboratory results from publication PMC7891422, “Tryptophan Analogues with Fixed Side‐Chain Orientation: Expanding the Scope” (Chembiochem, 2020).

Molecular target: T1, ghrelin receptor (Homo sapiens, UniProt Q92847)
T1 construct: expressed in transfected cells; host or cells: COS7 cells (stably transfected)
Assay: IP‐One assay (Cisbio IP-One Gq kit), inverse agonist activity
Format: cell-based
Details: mean±SEM of at least two independent experiments
Procedure: The four peptides and two known inverse agonists were tested towards their activity on the ghrelin receptor that was stably transfected in COS7 cells and examined in the Cisbio IP‐One assay as described in the supplementary section.
The assay was carried out in COS7 cells that were stably transfected with the ghrelin receptor. Data are the mean ±SEM of at least two independent experiments performed in triplicate.
IP-One assay COS7 cells stably transfected with the ghrelin receptor fused C-terminally to eYFP were cultured in a humidified atmosphere at 37 °C and 5% CO2 in Dulbecco's modified Eagle's medium with higher glucose supplemented with 10% (v/v) FCS and 0.4 mg/ml hygromycin B. Cisbio IP-One Gq assay kit was used according to previous description.[4] Shortly, 10000 cells/well were seeded out in a 384-well flat white plate and on the next day, stimulation was carried out in triplicates for 3h. 3 µl IP1-d2 and 3 µl Ab-cryptate were added and incubated on a tumbler for 60 min. Fluorescence was measured at 620 nm and 665 nm. HTRF ratio was calculated as the ratio 665/620. Obtained data were analyzed with GraphPad Prism 5.0 (GraphPad Software, San Diego, USA)
Emax is the efficacy of the peptide and represents the difference between constitutive activity and activity at maximal effect of the peptide. EC50 is the peptide concentration at half-

T1 sequence (Q92847 whole entry, species assumed): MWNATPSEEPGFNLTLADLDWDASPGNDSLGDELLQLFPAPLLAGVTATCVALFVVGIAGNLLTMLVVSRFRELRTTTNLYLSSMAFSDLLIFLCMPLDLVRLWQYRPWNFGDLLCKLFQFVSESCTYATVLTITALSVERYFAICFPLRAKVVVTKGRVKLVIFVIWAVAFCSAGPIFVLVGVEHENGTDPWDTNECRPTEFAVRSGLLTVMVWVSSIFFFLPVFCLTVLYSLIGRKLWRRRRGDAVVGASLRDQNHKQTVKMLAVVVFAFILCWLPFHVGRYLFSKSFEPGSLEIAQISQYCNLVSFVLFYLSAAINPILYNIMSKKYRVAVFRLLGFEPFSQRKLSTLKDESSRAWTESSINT

CC(C)C[C@H](NC(=O)[C@H](CC(C)C)NC(=O)[C@@H](Cc1c[nH]c2ccccc12)NC(=O)[C@H](Cc1ccccc1)NC(=O)[C@@H](Cc1c[nH]c2ccccc12)NC(=O)[C@@H](N)CCCCN)C(N)=O [Peptide 4, KwFwLL‐NH2]
E max±SEM (efficacy = difference between constitutive activity and activity at maximal effect, normalized to KbFwLL‐NH2 (3)): 66±3 Δ% | EC50 (inverse agonism, COS7 cells stably transfected with ghrelin receptor-eYFP, 3 h stimulation): 234 nM
